US20150366252A1, “SWEETENER ENHANCERS AND METHODS FOR USING THE SAME” (International Flavors & Fragrances Inc., priority 2014, published 2015)

System: human panelists (sweet taste of glucose)
Assay: Glucose enhancement test: paired-comparison human panelist taste test
Assay type: in vivo
Details: for glucose concentration perceived by panelists as equally sweet (as sweet as): composition of 7% glucose + 8 ppm compound; for glucose enhancement effects (overall statement): human panelist taste test, 7% glucose + 8 ppm compound
Method: Compounds 1-3 were tested for glucose sweetness enhancement by human panelist taste tests. Test samples containing the compound of interest were tasted in pairs by the panelist to determine which of the samples were sweeter. Binominal distribution for two-sided pair comparisons were used to determine the probability of the correct number of responses at α=0.05 (95% confidence level).

[1] = 7% glucose + 8 ppm compound vs 8.5% glucose
[2] = 7% glucose + 8 ppm compound vs 8.5% glucose, 12 panelists × 2 reps

Row | SMILES | sweetness perceived by panelists relative to 8.5% glucose [1] | Total (sample selected as sweeter by panelists) [2] | glucose concentration perceived by panelists as equally sweet (as sweet as) | glucose enhancement effects (overall statement) | further results
1 | CCCNC(=O)C(C)(C)COc1cccc2c1C(N)=NS(=O)(=O)N2 [FEMA 4701, reference compound] | significantly less sweet | 21 | 8 % glucose | only showed marginal glucose enhancement effects | Total (sample selected as sweeter by panelists) (7% glucose + 8 ppm compound vs 8% glucose, 12 panelists × 2 reps): 13
2 | Cc1nc2cccc(OCC(C)(C)C(=O)NC(C)C)c2c(N)c1C(=O)O [FEMA 4774, reference compound] |  |  |  | did not show significant glucose enhancement effects | sweetness perceived by panelists relative to 7% glucose (7% glucose + 8 ppm compound vs 7% glucose): only being directionally sweeter; Total (sample selected as sweeter by panelists) (7% glucose + 8 ppm compound vs 7% glucose, 12 panelists × 2 reps): 17
3 | NC1=NS(=O)(=O)Nc2cccc(OCC3(C(=O)NC4CCCC4)CCCNC3=O)c21 (stereo not shown) [Compound 1, 3-(((4-Amino-2,2-dioxido-1H-benzo[c][1,2,6]thiadiazin-5-yl)oxy)methyl)-N-cyclopentyl-2-oxopiperidine-3-carboxamide] | significantly sweeter |  | 10 % glucose |  | Total (sample selected as sweeter by panelists) (7% glucose + 8 ppm compound vs 9.5% glucose, paired comparison): 17; Total (sample selected as sweeter by panelists) (7% glucose + 8 ppm compound vs 10% glucose, paired comparison): 11; Total (sample selected as sweeter by panelists) (7% glucose + 8 ppm compound vs 10.5% glucose, paired comparison): 6
4 | NC1=NS(=O)(=O)Nc2cccc(OCC3(C(=O)NC4CCCCC4)CCCNC3=O)c21 (stereo not shown) [Compound 3, 3-(((4-amino-2,2-dioxido-1H-benzo[c][1,2,6]thiadiazin-5-yl)oxy)methyl)-N-cyclohexyl-2-oxopiperidine-3-carboxamide] | significantly sweeter | 21 | 9 % glucose |  | Total (sample selected as sweeter by panelists) (7% glucose + 8 ppm compound vs 9% glucose, 12 panelists × 2 reps): 14
5 | CC(C)NC(=O)C1(COc2cccc3c2C(N)=NS(=O)(=O)N3)CCCNC1=O (stereo not shown) [Compound 2, 3-(((4-amino-2,2-dioxido-1H-benzo-[c][1,2,6]thiadiazin-5-yl)oxy)methyl)-N-isopropyl-2-oxopiperidine-3-carboxamide] | significantly sweeter | 23 |  |  | 
